Source: ChEMBL document CHEMBL6121016, “Design, Synthesis, and Biological Evaluation of 1,3,4-Thiadiazole Derivatives as Novel Potent Peptide Deformylase Inhibitors for Combating Drug-Resistant Gram-Positive and -Negative Bacteria” (J Med Chem, 2025)
≈ marks a conversion by molar mass, not a printed value.

Assays:
Assay type in all cases: functional
Details in all cases: time 16-18 hrs
[1] = system: Staphylococcus aureus; experiment: Antibacterial activity against methicillin-resistant Staphylococcus aureus ATCC 33591 after 16 to 18 hrs by broth microdilution method
[2] = system: Staphylococcus aureus; experiment: Antibacterial activity against methicillin-resistant Staphylococcus aureus ATCC 43300 after 16 to 18 hrs by broth microdilution method
[3] = system: Staphylococcus aureus; experiment: Antibacterial activity against methicillin-resistant Staphylococcus aureus Bio-090770 after 16 to 18 hrs by broth microdilution method
[4] = system: Staphylococcus aureus; experiment: Antibacterial activity against methicillin-susceptible Staphylococcus aureus ATCC 29213 after 16 to 18 hrs by broth microdilution method
[5] = system: Staphylococcus aureus; experiment: Antibacterial activity against methicillin-susceptible Staphylococcus aureus ATCC 25923 after 16 to 18 hrs by broth microdilution method
[6] = system: Staphylococcus aureus; experiment: Antibacterial activity against methicillin-susceptible Staphylococcus aureus ATCC 13709 after 16 to 18 hrs by broth microdilution method
[7] = system: Staphylococcus epidermidis; experiment: Antibacterial activity against Staphylococcus epidermidis after 16 to 18 hrs by broth microdilution method
[8] = system: Escherichia coli; experiment: Antibacterial activity against Escherichia coli ATCC 25922 after 16 to 18 hrs by broth microdilution method
[9] = system: Klebsiella pneumoniae; experiment: Antibacterial activity against Klebsiella pneumoniae CICC 21611 after 16 to 18 hrs by broth microdilution method
[10] = system: Acinetobacter baumannii; experiment: Antibacterial activity against Acinetobacter baumannii Bio 34235 after 16 to 18 hrs by broth microdilution method
[11] = system: Acinetobacter baumannii; experiment: Antibacterial activity against drug-resistant Acinetobacter baumannii Bio 53272 after 16 to 18 hrs by broth microdilution method

Row | Structure (SMILES) | MIC [1] [µg/mL] | MIC [2] [µg/mL] | MIC [3] [µg/mL] | MIC [4] [µg/mL] | MIC [5] [µg/mL] | MIC [6] [µg/mL] | MIC [7] [µg/mL] | MIC [8] [µg/mL] | MIC [9] [µg/mL] | MIC [10] [µg/mL] | MIC [11] [µg/mL]
1 | CCCC[C@H](CN(O)C=O)C(=O)N1CCC[C@H]1c1nnc(-c2ccccn2)s1 | 0.5 (≈ 1.24 µM) | 0.5 (≈ 1.24 µM) | 1 (≈ 2.48 µM) | 1 (≈ 2.48 µM) | 0.5 (≈ 1.24 µM) | 0.5 (≈ 1.24 µM) | 0.5 (≈ 1.24 µM) | 128 (≈ 317 µM) | 32 (≈ 79.3 µM) | 32 (≈ 79.3 µM) | 16 (≈ 39.7 µM)
2 | CCCC[C@H](CN(O)C=O)C(=O)N1CCC[C@H]1c1nnc(-c2ncccc2F)s1 | 0.25 (≈ 0.593 µM) | 0.25 (≈ 0.593 µM) | 2 (≈ 4.74 µM) | 1 (≈ 2.37 µM) | 1 (≈ 2.37 µM) | 1 (≈ 2.37 µM) | 1 (≈ 2.37 µM) | > 16 | > 16 | 16 (≈ 38 µM) | 16 (≈ 38 µM)
3 | CCCC[C@H](CN(O)C=O)C(=O)N1CCC[C@H]1c1nnc(-c2ccnc(C(F)(F)F)c2)s1 | 0.25 (≈ 0.53 µM) | 0.25 (≈ 0.53 µM) | 1 (≈ 2.12 µM) | 0.5 (≈ 1.06 µM) | 0.5 (≈ 1.06 µM) | 0.5 (≈ 1.06 µM) | 1 (≈ 2.12 µM) | 128 (≈ 271 µM) | 64 (≈ 136 µM) | 64 (≈ 136 µM) | 16 (≈ 33.9 µM)
4 | CCCC[C@H](CN(O)C=O)C(=O)N1CCC[C@H]1c1nnc(-c2ccc[nH]2)s1 | 0.25 (≈ 0.639 µM) | 0.5 (≈ 1.28 µM) | 4 (≈ 10.2 µM) | 1 (≈ 2.55 µM) | 1 (≈ 2.55 µM) | 1 (≈ 2.55 µM) | 0.5 (≈ 1.28 µM) | > 16 | > 16 | > 16 | > 16
5 | CCCC[C@H](CN(O)C=O)C(=O)N1CCC[C@H]1c1nnc(C2CCCCC2)s1 | 0.5 (≈ 1.22 µM) | 1 (≈ 2.45 µM) | 2 (≈ 4.9 µM) | 2 (≈ 4.9 µM) | 2 (≈ 4.9 µM) | 2 (≈ 4.9 µM) | 4 (≈ 9.79 µM) | > 16 | > 16 | > 16 | > 16
6 | CCCC[C@H](CN(O)C=O)C(=O)N1CCC[C@H]1c1nnc(-c2ccsc2)s1 | 0.25 (≈ 0.612 µM) | 0.25 (≈ 0.612 µM) | 4 (≈ 9.79 µM) | 1 (≈ 2.45 µM) | 1 (≈ 2.45 µM) | 4 (≈ 9.79 µM) | 2 (≈ 4.9 µM) | 64 (≈ 157 µM) | 32 (≈ 78.3 µM) | 32 (≈ 78.3 µM) | 16 (≈ 39.2 µM)
7 | CCCC[C@H](CN(O)C=O)C(=O)N1CCC[C@H]1c1nnc(-c2ccc(Br)cc2)s1 | 0.5 (≈ 1.04 µM) | 0.5 (≈ 1.04 µM) | 1 (≈ 2.08 µM) | 1 (≈ 2.08 µM) | 0.5 (≈ 1.04 µM) | 0.5 (≈ 1.04 µM) | 1 (≈ 2.08 µM) | > 16 | > 16 | > 16 | 16 (≈ 33.2 µM)
8 | CCCC[C@H](CN(O)C=O)C(=O)N1CCC[C@H]1c1nnc(-c2cc(C)nn2C)s1 | 0.25 (≈ 0.594 µM) | 0.25 (≈ 0.594 µM) | 1 (≈ 2.38 µM) | 1 (≈ 2.38 µM) | 1 (≈ 2.38 µM) | 1 (≈ 2.38 µM) | 1 (≈ 2.38 µM) | 64 (≈ 152 µM) | 32 (≈ 76.1 µM) | 32 (≈ 76.1 µM) | 16 (≈ 38 µM)
9 | CCCC[C@H](CN(O)C=O)C(=O)N1CCC[C@H]1c1nnc(-c2ccncc2)s1 | 0.25 (≈ 0.62 µM) | 0.5 (≈ 1.24 µM) | 1 (≈ 2.48 µM) | 0.5 (≈ 1.24 µM) | 1 (≈ 2.48 µM) | 0.5 (≈ 1.24 µM) | 0.5 (≈ 1.24 µM) | 128 (≈ 317 µM) | 32 (≈ 79.3 µM) | 64 (≈ 159 µM) | 32 (≈ 79.3 µM)
10 | CCCC[C@H](CN(O)C=O)C(=O)N1CCC[C@H]1c1nnc(-c2ccc(C)cc2)s1 | 0.5 (≈ 1.2 µM) | 1 (≈ 2.4 µM) | 1 (≈ 2.4 µM) | 1 (≈ 2.4 µM) | 1 (≈ 2.4 µM) | 1 (≈ 2.4 µM) | 2 (≈ 4.8 µM) | 16 (≈ 38.4 µM) | > 16 | > 16 | 8 (≈ 19.2 µM)
11 | CCCC[C@H](CN(O)C=O)C(=O)N1CCC[C@H]1c1nnc(-c2c(F)cccc2[N+](=O)[O-])s1 | 1 (≈ 2.15 µM) | 2 (≈ 4.3 µM) | 2 (≈ 4.3 µM) | 2 (≈ 4.3 µM) | 2 (≈ 4.3 µM) | 2 (≈ 4.3 µM) | 4 (≈ 8.59 µM) | > 16 | > 16 | > 16 | > 16
12 | CCCC[C@H](CN(O)C=O)C(=O)N1CCC[C@H]1c1nnc(-c2cc(C(F)(F)F)cc(C(F)(F)F)c2)s1 | 2 (≈ 3.71 µM) | 2 (≈ 3.71 µM) | 4 (≈ 7.43 µM) | 4 (≈ 7.43 µM) | 2 (≈ 3.71 µM) | 2 (≈ 3.71 µM) | > 16 | > 16 | > 16 | > 16 | > 16
13 | CCCC[C@H](CN(O)C=O)C(=O)N1CCC[C@H]1c1nnc(C2CCCC2)s1 | 0.5 (≈ 1.27 µM) | 0.5 (≈ 1.27 µM) | 2 (≈ 5.07 µM) | 2 (≈ 5.07 µM) | 1 (≈ 2.53 µM) | 2 (≈ 5.07 µM) | 1 (≈ 2.53 µM) | > 16 | > 16 | > 16 | 8 (≈ 20.3 µM)
14 | CCCC[C@H](CN(O)C=O)C(=O)N1CCC[C@H]1c1nnc(Cc2cccs2)s1 | 0.5 (≈ 1.18 µM) | 1 (≈ 2.37 µM) | 2 (≈ 4.73 µM) | 2 (≈ 4.73 µM) | 2 (≈ 4.73 µM) | 2 (≈ 4.73 µM) | 2 (≈ 4.73 µM) | > 16 | > 16 | 16 (≈ 37.9 µM) | 16 (≈ 37.9 µM)
15 | CCCC[C@H](CN(O)C=O)C(=O)N1CCC[C@H]1c1nnc(-c2ccc(F)cc2C(F)(F)F)s1 | 0.5 (≈ 1.02 µM) | 2 (≈ 4.09 µM) | 4 (≈ 8.19 µM) | 2 (≈ 4.09 µM) | 2 (≈ 4.09 µM) | 2 (≈ 4.09 µM) | 4 (≈ 8.19 µM) | > 16 | > 16 | > 16 | > 16
16 | CCCC[C@H](CN(O)C=O)C(=O)N1CCC[C@H]1c1nnc(-c2ccc(C#N)cc2F)s1 | 0.125 (≈ 0.281 µM) | 0.125 (≈ 0.281 µM) | 0.5 (≈ 1.12 µM) | 0.25 (≈ 0.561 µM) | 0.125 (≈ 0.281 µM) | 0.125 (≈ 0.281 µM) | 2 (≈ 4.49 µM) | 8 (≈ 18 µM) | > 16 | > 16 | 8 (≈ 18 µM)
17 | CCCC[C@H](CN(O)C=O)C(=O)N1CCC[C@H]1c1nnc(C2CC2)s1 | 1 (≈ 2.73 µM) | 1 (≈ 2.73 µM) | 4 (≈ 10.9 µM) | 4 (≈ 10.9 µM) | 2 (≈ 5.46 µM) | 2 (≈ 5.46 µM) | 0.5 (≈ 1.36 µM) | > 16 | > 16 | > 16 | > 16
18 | CCCC[C@H](CN(O)C=O)C(=O)N1CCC[C@H]1c1nnc(-c2ccc3[nH]ccc3c2)s1 | 4 (≈ 9.06 µM) | 4 (≈ 9.06 µM) | 8 (≈ 18.1 µM) | 4 (≈ 9.06 µM) | 8 (≈ 18.1 µM) | 4 (≈ 9.06 µM) | 16 (≈ 36.2 µM) | > 16 | > 16 | > 16 | > 16
19 | CCCC[C@H](CN(O)C=O)C(=O)N1CCC[C@H]1c1nnc(C2CCOC2)s1 (stereo not given in full) | 1 (≈ 2.52 µM) | 1 (≈ 2.52 µM) | 4 (≈ 10.1 µM) | 4 (≈ 10.1 µM) | 4 (≈ 10.1 µM) | 4 (≈ 10.1 µM) | 4 (≈ 10.1 µM) | > 16 | > 16 | > 16 | > 16
20 | CCCCc1ccc(-c2nnc([C@@H]3CCCN3C(=O)[C@H](CCCC)CN(O)C=O)s2)cc1 | 2 (≈ 4.36 µM) | 2 (≈ 4.36 µM) | 4 (≈ 8.72 µM) | 4 (≈ 8.72 µM) | 4 (≈ 8.72 µM) | 4 (≈ 8.72 µM) | 8 (≈ 17.4 µM) | > 16 | > 16 | > 16 | > 16
21 | CCCC[C@H](CN(O)C=O)C(=O)N1CCC[C@H]1c1nnc(C)s1 | 1 (≈ 2.94 µM) | 4 (≈ 11.7 µM) | 4 (≈ 11.7 µM) | 4 (≈ 11.7 µM) | 4 (≈ 11.7 µM) | 4 (≈ 11.7 µM) | 0.25 (≈ 0.734 µM) | 16 (≈ 47 µM) | > 16 | > 16 | 8 (≈ 23.5 µM)
22 | CCCC[C@H](CN(O)C=O)C(=O)N1CCC[C@H]1c1nnc(-c2ccccc2)s1 | 2 (≈ 4.97 µM) | 4 (≈ 9.94 µM) | 8 (≈ 19.9 µM) | 8 (≈ 19.9 µM) | 4 (≈ 9.94 µM) | 2 (≈ 4.97 µM) | 4 (≈ 9.94 µM) | > 16 | > 16 | > 16 | > 16
23 | CCCC[C@H](CN(O)C=O)C(=O)N1CCC[C@H]1c1nnc(CCC)s1 | 1 (≈ 2.71 µM) | 1 (≈ 2.71 µM) | 4 (≈ 10.9 µM) | 2 (≈ 5.43 µM) | 2 (≈ 5.43 µM) | 2 (≈ 5.43 µM) | 2 (≈ 5.43 µM) | > 16 | > 16 | > 16 | > 16
24 | CCCC[C@H](CN(O)C=O)C(=O)N1CCC[C@H]1c1nnc(-c2sccc2C)s1 | 0.25 (≈ 0.592 µM) | 0.25 (≈ 0.592 µM) | 0.5 (≈ 1.18 µM) | 0.5 (≈ 1.18 µM) | 0.5 (≈ 1.18 µM) | 0.5 (≈ 1.18 µM) | 0.5 (≈ 1.18 µM) | 64 (≈ 151 µM) | 16 (≈ 37.9 µM) | 32 (≈ 75.7 µM) | 16 (≈ 37.9 µM)
25 | CCCC[C@H](CN(O)C=O)C(=O)N1CCC[C@H]1c1nnc(-c2ccccc2F)s1 | 0.5 (≈ 1.19 µM) | 0.5 (≈ 1.19 µM) | 1 (≈ 2.38 µM) | 1 (≈ 2.38 µM) | 0.5 (≈ 1.19 µM) | 0.5 (≈ 1.19 µM) | 2 (≈ 4.76 µM) | 16 (≈ 38 µM) | > 16 | 16 (≈ 38 µM) | 8 (≈ 19 µM)
